According to ChEMBL document CHEMBL4800729 (2021):

Key:
[1] = biological target: D(2) dopamine receptor (Homo sapiens) (UniProt P14416); conditions: Compound concentration 10.0 uM
[2] = biological target: T1, 5-hydroxytryptamine receptor 1B (Homo sapiens, UniProt P28222); test: GPCRScan assay: inhibition of 5-HT1B; design: radioligand conc. used [nm] 0.6 – 1.5, parental cells stable HEK
[3] = organism: Rattus norvegicus; conditions: Compound concentration 10.0 uM
[4] = biological target: Mu-type opioid receptor (Homo sapiens) (UniProt P35372); conditions: Compound concentration 10.0 uM
Mu-type opioid receptor (Homo sapiens), sequence (P35372 whole entry): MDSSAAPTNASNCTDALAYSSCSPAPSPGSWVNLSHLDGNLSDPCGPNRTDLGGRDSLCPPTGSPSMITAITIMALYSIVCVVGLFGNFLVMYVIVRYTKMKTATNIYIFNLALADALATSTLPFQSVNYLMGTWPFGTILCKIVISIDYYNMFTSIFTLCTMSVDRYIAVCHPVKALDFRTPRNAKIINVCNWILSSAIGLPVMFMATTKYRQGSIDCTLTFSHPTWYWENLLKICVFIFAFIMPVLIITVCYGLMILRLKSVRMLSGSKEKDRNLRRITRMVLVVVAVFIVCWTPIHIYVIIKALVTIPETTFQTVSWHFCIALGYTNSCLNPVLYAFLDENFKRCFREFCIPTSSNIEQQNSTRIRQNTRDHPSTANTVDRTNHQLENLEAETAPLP

[5] = biological target: Histamine H3 receptor (Homo sapiens) (UniProt Q9Y5N1); conditions: Compound concentration 10.0 uM
Histamine H3 receptor (Homo sapiens), sequence (Q9Y5N1 whole entry): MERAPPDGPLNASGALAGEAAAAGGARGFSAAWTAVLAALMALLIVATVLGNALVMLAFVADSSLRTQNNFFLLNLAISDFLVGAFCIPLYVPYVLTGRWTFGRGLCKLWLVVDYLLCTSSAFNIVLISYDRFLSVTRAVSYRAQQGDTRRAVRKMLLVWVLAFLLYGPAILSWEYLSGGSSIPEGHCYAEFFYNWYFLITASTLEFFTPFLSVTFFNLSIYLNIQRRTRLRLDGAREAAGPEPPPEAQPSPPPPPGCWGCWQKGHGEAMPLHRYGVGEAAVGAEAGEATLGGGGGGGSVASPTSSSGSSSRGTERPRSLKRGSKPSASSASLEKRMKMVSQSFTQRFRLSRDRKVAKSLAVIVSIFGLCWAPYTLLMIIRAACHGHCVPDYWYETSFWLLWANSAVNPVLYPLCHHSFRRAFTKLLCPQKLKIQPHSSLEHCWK

[6] = biological target: 5-hydroxytryptamine receptor 2A (Homo sapiens) (UniProt P28223); conditions: Compound concentration 10.0 uM
5-hydroxytryptamine receptor 2A (Homo sapiens), sequence (P28223 whole entry): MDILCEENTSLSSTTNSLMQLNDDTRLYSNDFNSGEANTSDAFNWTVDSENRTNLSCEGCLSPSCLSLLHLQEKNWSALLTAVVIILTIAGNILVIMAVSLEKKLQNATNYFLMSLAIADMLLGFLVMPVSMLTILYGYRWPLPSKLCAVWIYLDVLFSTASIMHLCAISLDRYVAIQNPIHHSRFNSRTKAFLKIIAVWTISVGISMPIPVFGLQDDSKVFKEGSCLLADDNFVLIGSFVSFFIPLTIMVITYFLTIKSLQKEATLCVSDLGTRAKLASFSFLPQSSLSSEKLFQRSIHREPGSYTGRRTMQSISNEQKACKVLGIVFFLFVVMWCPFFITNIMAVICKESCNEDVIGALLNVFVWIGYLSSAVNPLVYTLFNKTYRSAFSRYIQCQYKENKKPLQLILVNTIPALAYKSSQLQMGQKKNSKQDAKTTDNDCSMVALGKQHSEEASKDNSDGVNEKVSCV

[7] = biological target: Sigma non-opioid intracellular receptor 1 (Homo sapiens) (UniProt Q99720); conditions: Compound concentration 10.0 uM
[8] = biological target: D(3) dopamine receptor (Homo sapiens) (UniProt P35462); conditions: Compound concentration 10.0 uM
[9] = biological target: T2, Alpha-2B adrenergic receptor (Homo sapiens) (UniProt P18089); conditions: Compound concentration 10.0 uM
T2 sequence (whole entry): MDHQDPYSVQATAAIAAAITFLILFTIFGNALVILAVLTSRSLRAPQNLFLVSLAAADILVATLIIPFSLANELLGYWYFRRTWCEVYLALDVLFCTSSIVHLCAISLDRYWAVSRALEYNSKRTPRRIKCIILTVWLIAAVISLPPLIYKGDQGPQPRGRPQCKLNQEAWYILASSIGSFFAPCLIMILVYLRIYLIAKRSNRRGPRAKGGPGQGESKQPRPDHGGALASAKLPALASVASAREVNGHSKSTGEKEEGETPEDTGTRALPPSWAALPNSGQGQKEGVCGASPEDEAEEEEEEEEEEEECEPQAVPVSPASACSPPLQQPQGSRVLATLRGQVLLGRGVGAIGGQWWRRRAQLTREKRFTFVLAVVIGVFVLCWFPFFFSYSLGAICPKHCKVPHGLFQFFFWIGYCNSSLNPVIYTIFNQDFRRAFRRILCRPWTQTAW

[10] = biological target: T3, Alpha-2C adrenergic receptor (Homo sapiens) (UniProt P18825); conditions: Compound concentration 10.0 uM
T3 sequence (whole entry): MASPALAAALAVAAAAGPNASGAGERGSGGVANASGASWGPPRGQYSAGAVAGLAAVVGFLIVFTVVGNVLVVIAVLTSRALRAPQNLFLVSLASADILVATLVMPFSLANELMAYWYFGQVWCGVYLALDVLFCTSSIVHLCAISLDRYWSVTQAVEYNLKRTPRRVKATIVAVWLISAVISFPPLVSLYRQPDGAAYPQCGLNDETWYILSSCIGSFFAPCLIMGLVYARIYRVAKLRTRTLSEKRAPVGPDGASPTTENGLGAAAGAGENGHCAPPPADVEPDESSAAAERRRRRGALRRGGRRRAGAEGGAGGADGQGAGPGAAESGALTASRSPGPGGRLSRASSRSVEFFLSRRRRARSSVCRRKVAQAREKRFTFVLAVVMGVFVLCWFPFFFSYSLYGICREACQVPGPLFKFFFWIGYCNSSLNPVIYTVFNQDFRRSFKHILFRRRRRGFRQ

[11] = biological target: Beta-1 adrenergic receptor (Homo sapiens) (UniProt P08588); conditions: Compound concentration 10.0 uM
[12] = biological target: D(4) dopamine receptor (Homo sapiens) (UniProt P21917); conditions: Compound concentration 10.0 uM
[13] = biological target: Alpha-2A adrenergic receptor (Homo sapiens) (UniProt P08913); conditions: Compound concentration 10.0 uM
[14] = biological target: T1, 5-hydroxytryptamine receptor 1B; conditions: Compound concentration 10.0 uM
[15] = biological target: Sodium-dependent dopamine transporter (Homo sapiens) (UniProt Q01959); conditions: Compound concentration 10.0 uM
[16] = biological target: 5-hydroxytryptamine receptor 1D (Homo sapiens) (UniProt P28221); conditions: Compound concentration 10.0 uM
5-hydroxytryptamine receptor 1D (Homo sapiens), sequence (P28221 whole entry): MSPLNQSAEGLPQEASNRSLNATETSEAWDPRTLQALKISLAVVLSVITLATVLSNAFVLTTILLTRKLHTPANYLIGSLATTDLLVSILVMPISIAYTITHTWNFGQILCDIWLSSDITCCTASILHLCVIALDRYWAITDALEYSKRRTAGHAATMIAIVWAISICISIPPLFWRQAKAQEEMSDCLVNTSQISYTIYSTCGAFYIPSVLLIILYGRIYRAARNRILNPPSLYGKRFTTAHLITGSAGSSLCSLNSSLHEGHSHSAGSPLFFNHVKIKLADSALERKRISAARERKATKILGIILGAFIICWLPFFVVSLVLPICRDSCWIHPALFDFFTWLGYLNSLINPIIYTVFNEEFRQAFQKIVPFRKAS

[17] = biological target: 5-hydroxytryptamine receptor 3A (Homo sapiens) (UniProt P46098); conditions: Compound concentration 10.0 uM
[18] = biological target: Kappa-type opioid receptor (Homo sapiens) (UniProt P41145); conditions: Compound concentration 10.0 uM
[19] = biological target: Beta-3 adrenergic receptor (Homo sapiens) (UniProt P13945); conditions: Compound concentration 10.0 uM
[20] = biological target: Delta-type opioid receptor (Homo sapiens) (UniProt P41143); conditions: Compound concentration 10.0 uM
Delta-type opioid receptor (Homo sapiens), sequence (P41143 whole entry): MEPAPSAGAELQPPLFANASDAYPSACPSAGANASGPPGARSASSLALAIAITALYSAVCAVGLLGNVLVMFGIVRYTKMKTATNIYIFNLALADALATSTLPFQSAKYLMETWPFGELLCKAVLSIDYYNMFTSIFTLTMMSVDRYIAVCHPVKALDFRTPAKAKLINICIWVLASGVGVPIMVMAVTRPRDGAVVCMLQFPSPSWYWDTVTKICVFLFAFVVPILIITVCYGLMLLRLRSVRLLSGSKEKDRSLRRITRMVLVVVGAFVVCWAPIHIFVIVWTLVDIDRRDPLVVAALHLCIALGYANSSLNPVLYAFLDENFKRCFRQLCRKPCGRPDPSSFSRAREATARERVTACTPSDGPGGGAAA

[21] = biological target: Sodium-dependent noradrenaline transporter (Homo sapiens) (UniProt P23975); conditions: Compound concentration 10.0 uM
Sodium-dependent noradrenaline transporter (Homo sapiens), sequence (P23975 whole entry): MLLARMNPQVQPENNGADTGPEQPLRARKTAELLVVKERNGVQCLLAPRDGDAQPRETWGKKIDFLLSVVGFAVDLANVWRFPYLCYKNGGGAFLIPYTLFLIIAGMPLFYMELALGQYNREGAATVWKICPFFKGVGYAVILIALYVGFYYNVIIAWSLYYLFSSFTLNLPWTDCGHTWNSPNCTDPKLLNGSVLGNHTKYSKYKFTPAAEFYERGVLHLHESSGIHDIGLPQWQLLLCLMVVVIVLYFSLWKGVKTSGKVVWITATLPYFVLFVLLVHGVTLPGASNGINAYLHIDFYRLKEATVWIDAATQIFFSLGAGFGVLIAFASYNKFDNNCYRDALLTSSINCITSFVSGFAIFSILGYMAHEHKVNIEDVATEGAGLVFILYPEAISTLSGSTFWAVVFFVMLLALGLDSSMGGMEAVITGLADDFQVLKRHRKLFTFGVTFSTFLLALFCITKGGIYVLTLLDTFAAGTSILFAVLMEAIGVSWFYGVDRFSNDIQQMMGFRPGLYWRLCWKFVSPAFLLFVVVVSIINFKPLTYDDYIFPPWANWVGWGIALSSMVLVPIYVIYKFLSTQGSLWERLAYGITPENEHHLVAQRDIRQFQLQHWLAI

[22] = biological target: 5-hydroxytryptamine receptor 5A (Homo sapiens) (UniProt P47898); conditions: Compound concentration 10.0 uM
5-hydroxytryptamine receptor 5A (Homo sapiens), sequence (P47898 whole entry): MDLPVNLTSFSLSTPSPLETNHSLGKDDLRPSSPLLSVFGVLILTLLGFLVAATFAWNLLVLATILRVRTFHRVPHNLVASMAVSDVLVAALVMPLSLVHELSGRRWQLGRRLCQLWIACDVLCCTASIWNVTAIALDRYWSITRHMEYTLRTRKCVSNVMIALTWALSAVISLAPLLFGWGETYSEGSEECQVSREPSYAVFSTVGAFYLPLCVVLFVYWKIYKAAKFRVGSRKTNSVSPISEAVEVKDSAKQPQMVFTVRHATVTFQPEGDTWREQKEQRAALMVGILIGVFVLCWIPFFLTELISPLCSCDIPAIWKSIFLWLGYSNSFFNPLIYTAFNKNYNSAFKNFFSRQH

[23] = biological target: Histamine H1 receptor (Homo sapiens) (UniProt P35367); conditions: Compound concentration 10.0 uM
[24] = biological target: Muscarinic acetylcholine receptor M4 (Homo sapiens) (UniProt P08173); conditions: Compound concentration 10.0 uM
Muscarinic acetylcholine receptor M4 (Homo sapiens), sequence (P08173 whole entry): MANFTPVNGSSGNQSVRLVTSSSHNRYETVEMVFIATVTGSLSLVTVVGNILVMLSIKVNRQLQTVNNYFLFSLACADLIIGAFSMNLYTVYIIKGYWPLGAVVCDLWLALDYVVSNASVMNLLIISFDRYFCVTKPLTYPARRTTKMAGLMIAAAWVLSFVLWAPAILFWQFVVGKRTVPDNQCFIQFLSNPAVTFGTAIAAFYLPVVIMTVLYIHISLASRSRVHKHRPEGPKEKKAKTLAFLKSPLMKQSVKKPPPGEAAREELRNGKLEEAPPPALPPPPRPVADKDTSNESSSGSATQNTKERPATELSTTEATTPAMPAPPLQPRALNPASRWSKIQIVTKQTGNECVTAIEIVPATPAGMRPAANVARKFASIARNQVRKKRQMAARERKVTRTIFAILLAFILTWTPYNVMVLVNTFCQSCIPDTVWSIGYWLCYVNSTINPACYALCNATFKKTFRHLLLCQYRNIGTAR

[25] = biological target: 5-hydroxytryptamine receptor 6 (Homo sapiens, UniProt P50406); test: GPCRScan assay: inhibition of 5-HT6; design: radioligand conc. used [nm] 2.0 – 4.0, parental cells stable HEK
5-hydroxytryptamine receptor 6, sequence (P50406 whole entry): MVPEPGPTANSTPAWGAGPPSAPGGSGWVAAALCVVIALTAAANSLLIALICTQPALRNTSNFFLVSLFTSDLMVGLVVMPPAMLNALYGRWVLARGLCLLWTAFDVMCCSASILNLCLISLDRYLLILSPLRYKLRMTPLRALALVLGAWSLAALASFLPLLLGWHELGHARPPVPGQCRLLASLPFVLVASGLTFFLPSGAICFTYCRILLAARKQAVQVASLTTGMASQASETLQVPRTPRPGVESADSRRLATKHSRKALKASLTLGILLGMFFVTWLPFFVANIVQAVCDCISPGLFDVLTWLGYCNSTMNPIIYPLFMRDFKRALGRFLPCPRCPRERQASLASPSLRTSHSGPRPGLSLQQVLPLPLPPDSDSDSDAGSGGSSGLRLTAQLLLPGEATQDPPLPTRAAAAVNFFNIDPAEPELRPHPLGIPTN

[26] = biological target: Histamine H2 receptor (Homo sapiens) (UniProt P25021); conditions: Compound concentration 10.0 uM
[27] = biological target: D(1A) dopamine receptor (Homo sapiens, UniProt P21728); test: GPCRScan assay: inhibition of D1; design: radioligand conc. used [nm] 0.6 – 1.3, parental cells HEKT
[28] = biological target: T4, Muscarinic acetylcholine receptor M1 (Homo sapiens) (UniProt P11229); conditions: Compound concentration 10.0 uM
T4 sequence (whole entry): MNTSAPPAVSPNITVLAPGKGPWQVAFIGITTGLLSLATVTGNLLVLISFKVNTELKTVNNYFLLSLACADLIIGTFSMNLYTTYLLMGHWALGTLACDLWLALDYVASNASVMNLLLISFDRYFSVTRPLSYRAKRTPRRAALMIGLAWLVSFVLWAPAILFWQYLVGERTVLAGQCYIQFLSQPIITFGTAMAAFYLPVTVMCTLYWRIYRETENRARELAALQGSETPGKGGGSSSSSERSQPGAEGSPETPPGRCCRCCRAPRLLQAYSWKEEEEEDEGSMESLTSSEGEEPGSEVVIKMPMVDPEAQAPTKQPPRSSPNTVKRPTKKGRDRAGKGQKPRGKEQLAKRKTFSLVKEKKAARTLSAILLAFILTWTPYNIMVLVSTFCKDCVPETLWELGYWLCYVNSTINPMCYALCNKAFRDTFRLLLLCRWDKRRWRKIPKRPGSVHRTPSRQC

[29] = biological target: Sigma intracellular receptor 2 (Homo sapiens) (UniProt Q5BJF2); conditions: Compound concentration 10.0 uM
Sigma intracellular receptor 2 (Homo sapiens), sequence (Q5BJF2 whole entry): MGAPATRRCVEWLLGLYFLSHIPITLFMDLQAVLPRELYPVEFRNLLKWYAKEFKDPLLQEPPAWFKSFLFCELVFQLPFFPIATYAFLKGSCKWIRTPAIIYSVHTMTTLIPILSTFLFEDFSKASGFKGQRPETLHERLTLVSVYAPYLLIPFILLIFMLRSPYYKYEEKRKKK

[30] = biological target: Histamine H4 receptor (Homo sapiens) (UniProt Q9H3N8); conditions: Compound concentration 10.0 uM
Histamine H4 receptor (Homo sapiens), sequence (Q9H3N8 whole entry): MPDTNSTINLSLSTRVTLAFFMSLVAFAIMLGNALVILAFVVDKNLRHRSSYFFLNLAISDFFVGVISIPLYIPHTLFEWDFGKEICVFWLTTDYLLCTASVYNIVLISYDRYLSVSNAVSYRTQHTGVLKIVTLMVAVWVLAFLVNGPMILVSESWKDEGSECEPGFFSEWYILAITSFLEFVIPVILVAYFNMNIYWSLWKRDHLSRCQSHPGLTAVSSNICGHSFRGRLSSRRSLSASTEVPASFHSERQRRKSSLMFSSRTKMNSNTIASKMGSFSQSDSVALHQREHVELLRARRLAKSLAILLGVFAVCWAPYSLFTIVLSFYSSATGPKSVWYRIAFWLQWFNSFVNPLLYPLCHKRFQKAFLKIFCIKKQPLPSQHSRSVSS

[31] = biological target: T5, 5-hydroxytryptamine receptor 1A (Homo sapiens) (UniProt P08908); conditions: Compound concentration 10.0 uM
T5 sequence (whole entry): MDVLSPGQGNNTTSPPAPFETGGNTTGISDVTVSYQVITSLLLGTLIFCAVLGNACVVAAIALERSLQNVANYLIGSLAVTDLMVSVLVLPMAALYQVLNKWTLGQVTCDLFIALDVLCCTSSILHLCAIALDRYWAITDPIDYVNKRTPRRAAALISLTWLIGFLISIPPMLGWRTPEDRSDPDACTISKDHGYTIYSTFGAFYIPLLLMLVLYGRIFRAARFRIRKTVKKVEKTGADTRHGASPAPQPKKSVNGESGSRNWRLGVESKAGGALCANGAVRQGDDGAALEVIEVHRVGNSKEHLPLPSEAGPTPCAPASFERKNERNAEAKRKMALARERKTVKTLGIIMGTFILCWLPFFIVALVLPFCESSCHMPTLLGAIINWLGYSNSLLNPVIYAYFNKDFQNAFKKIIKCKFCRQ

T1 sequence (P28222 whole entry): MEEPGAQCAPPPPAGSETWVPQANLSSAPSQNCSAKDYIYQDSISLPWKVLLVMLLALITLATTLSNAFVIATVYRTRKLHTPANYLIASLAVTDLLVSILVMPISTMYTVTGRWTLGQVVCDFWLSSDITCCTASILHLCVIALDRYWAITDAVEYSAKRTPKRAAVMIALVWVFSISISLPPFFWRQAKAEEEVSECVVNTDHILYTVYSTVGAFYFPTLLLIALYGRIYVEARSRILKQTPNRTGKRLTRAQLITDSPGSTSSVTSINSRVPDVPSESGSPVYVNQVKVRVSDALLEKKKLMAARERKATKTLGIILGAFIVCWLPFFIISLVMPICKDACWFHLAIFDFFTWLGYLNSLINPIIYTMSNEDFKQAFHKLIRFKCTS

CC[C@H](Nc1c(C#N)c(-c2ccc(-c3cccc(C)c3F)cc2)nc2cnccc12)C(=O)O [BAY-0361]
> 10 µM: Ki [2] | Ki [25]
9.48 µM: Ki [27]
inactive: inhibition [1] -5.16% | inhibition [3] 41.8% | inhibition [4] -9.08% | inhibition [5] -8.98% | inhibition [6] -9.27% | inhibition [7] 23.1% | inhibition [8] 7.14% | inhibition [9] -7.7% | inhibition [10] -6.46% | inhibition [11] 5.52% | inhibition [12] -8.01% | inhibition [13] 8.09% | inhibition [15] 38.8% | inhibition [16] 46.6% | inhibition [17] 2.07% | inhibition [18] 4.36% | inhibition [19] 21.6% | inhibition [20] 3.55% | inhibition [21] -6.08% | inhibition [22] -9.19% | inhibition [23] -8.53% | inhibition [24] -0.83% | inhibition [26] 9.78% | inhibition [28] -8.53% | inhibition [29] 11.6% | inhibition [30] 18.7% | inhibition [31] 8.67%
< 5: pKi [2] | pKi [25]
active: inhibition [14] 51%
